Data: patent publication US20060100431A1, “Biologically active compounds” (Amura Therapeutics Limited, priority 2002, published 2006)

Legend:
Format in all cases: biochemical
Wild-type cruzipain = Wild-type cruzipain (Trypanosoma cruzi, UniProt P25779); experiment: Trypanosoma cruzi cruzipain peptidase activity assay (Ki); conditions: read-out: Ki, inhibitors of cruzain and cruzipains
How it was run: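 Native cruzipain from T. cruzi Dm28 epimastigotes, 2.5 nM, in 100 mM sodium phosphate pH 6.75 with 1 mM EDTA and 10 mM L-cysteine, 25 °C, DMSO <1%. Rates taken from continuous fluorogenic substrate read; Ki by regression assuming reversible pure-competitive inhibition.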

human cathepsin B = target: T1, human cathepsin B (Homo sapiens, UniProt P07858); experiment: Cathepsin B peptidase activity assay (Ki); conditions: read-out: Ki, inhibitors of cathepsin B
T1 construct: purchased CN Biosciences
How it was run: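 Buffer: 10 mM bis-tris-propane pH 6.5, 1 mM EDTA, 5 mM 2-mercaptoethanol, 1 mM CaCl2; DMSO <1%. Ki assumed reversible, pure-competitive, from Ki^app=Ki(1+[So]/KM^app) by non-linear regression.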

CPB2.8ΔCTE = target: T2, CPB2.8ΔCTE (Leishmania mexicana, UniProt P36400); experiment: Leishmania mexicana cysteine protease B (CPB) peptidase activity assay (Ki); conditions: Ki, inhibitors of Leismania mexicana CPB protease
T2 construct: Wild-type recombinant CPB without the C-terminal extention (i.e. CPB2.8ΔCTE); Dr. Jeremy Mottram (Wellcome Centre for Molecular Parasitology, University of Glasgow)
T2 sequence (P36400 126-343, stated change not applied): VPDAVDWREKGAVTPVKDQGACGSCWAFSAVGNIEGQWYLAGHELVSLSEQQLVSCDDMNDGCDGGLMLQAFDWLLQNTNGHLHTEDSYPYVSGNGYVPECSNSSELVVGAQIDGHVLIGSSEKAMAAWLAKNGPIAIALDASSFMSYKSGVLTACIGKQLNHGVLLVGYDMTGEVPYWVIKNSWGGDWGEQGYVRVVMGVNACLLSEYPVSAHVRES
How it was run: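 Apparent Ki was derived by regression of activity against inhibitor concentration, assuming pure-competitive reversible binding. Reaction: 0.25 nM CPB lacking the C-terminal extension, pH 5.5 acetate buffer (1 mM EDTA, 200 mM NaCl, 10 mM DTT), 25 °C, followed by continuous substrate fluorescence.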

human cathepsin L = target: T3, human cathepsin L (Homo sapiens, UniProt P07711); experiment: Cathepsin L peptidase activity assay (Ki); conditions: read-out: Ki, inhibitors of cathepsin L
T3 construct: purchased CN Biosciences
T3 sequence (P07711 114-333): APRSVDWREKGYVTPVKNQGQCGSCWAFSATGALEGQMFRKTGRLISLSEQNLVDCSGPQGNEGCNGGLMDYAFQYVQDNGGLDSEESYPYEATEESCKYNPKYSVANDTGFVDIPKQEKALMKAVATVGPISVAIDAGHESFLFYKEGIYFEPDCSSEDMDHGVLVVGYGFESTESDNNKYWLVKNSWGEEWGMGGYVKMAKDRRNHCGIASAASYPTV
How it was run: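 Run at 25±1° C with DMSO under 1%: buffer was 10 mM BTP pH 6.5 containing 1 mM EDTA, 1 mM CaCl2 and 5 mM 2-mercaptoethanol. Enzyme (1 nM cathepsin L) was added last to start hydrolysis of Ac-Phe-Arg-AMC held at KM^app (~20 μM), followed kinetically by fluorescence at 365/450 nm.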

Measured: Ki

Sequence of Wild-type cruzipain (P25779 whole entry): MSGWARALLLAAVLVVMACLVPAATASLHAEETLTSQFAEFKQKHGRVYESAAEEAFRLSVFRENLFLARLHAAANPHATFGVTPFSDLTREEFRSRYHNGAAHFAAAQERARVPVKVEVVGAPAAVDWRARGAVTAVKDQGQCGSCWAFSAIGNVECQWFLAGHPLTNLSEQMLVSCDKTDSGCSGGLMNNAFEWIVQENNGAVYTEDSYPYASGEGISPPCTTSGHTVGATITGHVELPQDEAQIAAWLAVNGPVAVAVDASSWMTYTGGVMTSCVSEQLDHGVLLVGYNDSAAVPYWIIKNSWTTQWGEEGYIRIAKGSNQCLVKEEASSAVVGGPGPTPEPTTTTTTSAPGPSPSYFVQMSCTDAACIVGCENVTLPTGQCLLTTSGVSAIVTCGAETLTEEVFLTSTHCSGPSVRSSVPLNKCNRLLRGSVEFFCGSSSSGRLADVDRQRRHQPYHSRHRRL

CC(C)C[C@H](NC(=O)c1ccc(N(C)C)cc1)C(=O)N1CC[C@@H]2[C@H]1C(=O)CN2C(=O)c1cccc(Cl)c1 [Example 73, (3aR,6aS)-N-{(1S)-1-[4-(3-Chloro-benzoyl)-6-oxo-hexahydro-pyrrolo[3,2-b]pyrrole-1-carbonyl]-3-methyl-butyl}-4-dimethylamino-benzamide]
< 5 µM: all assays above

CC(C)C[C@H](NC(=O)c1ccc(C(C)(C)C)cc1)C(=O)N1CC[C@@H]2[C@H]1C(=O)CN2C(=O)c1csc2ccccc12 [Example 31]
< 5 µM: all assays above

CC(C)C[C@H](NC(=O)c1cc2ccccc2s1)C(=O)N1CC[C@@H]2[C@H]1C(=O)CN2C(=O)c1cccnc1 [Example 15, (3aR,6aS)-Benzo[b]thiophene-2-carboxylic acid {(1S)-3-methyl-1-[6-oxo-4-(pyridine-3-carbonyl)-hexahydro-pyrrolo[3,2-b]pyrrole-1-carbonyl]-butyl}-amide]
< 5 µM: Wild-type cruzipain | human cathepsin B | human cathepsin L

O=C(N[C@@H](CC1CCCCC1)C(=O)N1CC[C@@H]2[C@H]1C(=O)CN2C(=O)c1cccc2ccccc12)c1ccsc1 [Example 255, (3aR,6aS)-Thiophene-3-carboxylic acid {(1S)-1-cyclohexylmethyl-2-[4-(naphthalene-1-carbonyl)-6-oxo-hexahydro-pyrrolo[3,2-b]pyrrol-1-yl]-2-oxo-ethyl}-amide]
< 5 µM: Wild-type cruzipain | human cathepsin B | human cathepsin L

O=C(N[C@@H](CC1CCCCC1)C(=O)N1CC[C@@H]2[C@H]1C(=O)CN2C(=O)c1ccccc1)c1csc2ccccc12 [Example 254, (3aR,6aS)-Benzo[b]thiophene-3-carboxylic acid [(1S)-2-(4-benzoyl-6-oxo-hexahydro-pyrrolo[3,2-b]pyrrole-1-yl)-1-cyclohexylmethyl-2-oxo-ethyl]-amide]
< 5 µM: Wild-type cruzipain | human cathepsin B | human cathepsin L

Cc1cccc(C(=O)N2CC(=O)[C@@H]3[C@H]2CCN3C(=O)[C@H](CC2CCCCC2)NC(=O)c2ccsc2)c1 [Example 292, (3aR,6aS)-Thiophene-3-carboxylic acid {(1S)-1-cyclohexylmethyl-2-[4-(3-methyl-benzoyl)-6-oxo-hexahydro-pyrrolo[3,2-b]pyrrol-1-yl]-2-oxo-ethyl}-amide]
< 5 µM: Wild-type cruzipain | human cathepsin B | human cathepsin L

CS(=O)(=O)c1ccccc1C(=O)N1CC(=O)[C@@H]2[C@H]1CCN2C(=O)[C@H](CSCc1ccccc1)NC(=O)c1ccsc1 [Example 261, (3aR,6aS)-Thiophene-3-carboxylic acid {(1R)-1-benzylsulfanylmethyl-2-[4-(2-methanesulfonyl-benzoyl)-6-oxo-hexahydro-pyrrolo[3,2-b]pyrrol-1-yl]-2-oxo-ethyl}-amide]
< 5 µM: Wild-type cruzipain | human cathepsin B | human cathepsin L

CC(C)C[C@H](NC(=O)c1ccc(N(C)C)cc1)C(=O)N1CC[C@@H]2[C@H]1C(=O)CN2C(=O)C1CCCCC1 [Example 104, (3aR,6aS)-N-[(1S)-1-(4-Cyclohexanecarbonyl-6-oxo-hexahydro-pyrrolo[3,2-b]pyrrole-1-carbonyl)-3-methyl-butyl]-4-dimethylamino-benzamide]
< 5 µM: all assays above

O=C(N[C@@H](CC1CCCCC1)C(=O)N1CC[C@@H]2[C@H]1C(=O)CN2C(=O)c1ccccc1)c1ccccc1 [Example 290, (3aR,6aS)-N-[(1S)-2-(4-Benzoyl-6-oxo-hexahydro-pyrrolo[3,2-b]pyrrol-1-yl)-1-cyclohexylmethyl-2-oxo-ethyl]-benzamide]
< 5 µM: Wild-type cruzipain | human cathepsin B | human cathepsin L

O=C(N[C@@H](CC1CCCCC1)C(=O)N1CC[C@@H]2[C@H]1C(=O)CN2C(=O)c1ccccc1)c1ccc2ncsc2c1 [Example 286, (3aR,6aS)-Benzothiazole-6-carboxylic acid [(1S)-2-(4-benzoyl-6-oxo-hexahydro-pyrrolo[3,2-b]pyrrole-1-yl)-1-cyclohexylmethyl-2-oxo-ethyl]-amide]
< 5 µM: all assays above

CC(C)C[C@H](NC(=O)C(c1ccccc1)c1ccccc1)C(=O)N1CC[C@@H]2[C@H]1C(=O)CN2C(=O)c1csc2ccccc12 [Example 271, (3aR,6aS)-N-{(1S)-1-[4-(Benzo[b]thiophene-3-carbonyl)-6-oxo-hexahydro-pyrrolo[3,2-b]pyrrole-1-carbonyl]-3-methyl-butyl}-2,2-diphenyl-acetamide]
< 5 µM: all assays above

CC(C)C[C@H](NC(=O)c1ccc(C(C)(C)C)cc1)C(=O)N1CC[C@@H]2[C@H]1C(=O)CN2C(=O)c1ccc(-c2ccccc2)s1 [Example 28, (3aR,6aS)-4-tert-Butyl-N-{(1S)-3-methyl-1-[6-oxo-4-(5-phenyl-thiophene-2-carbonyl)-hexahydro-pyrrolo[3,2-b]pyrrole-1-carbonyl]-butyl}-benzamide]
< 5 µM: all assays above

O=C(N[C@@H](CC1CCCCC1)C(=O)N1CC[C@@H]2[C@H]1C(=O)CN2C(=O)c1ccc(-c2ccccc2)s1)c1ccsc1 [Example 258, (3aR,6aS)-Thiophene-3-carboxylic acid {(1S)-1-cyclohexylmethyl-2-oxo-2-[6-oxo-4-(5-phenyl-thiophene-2-carbonyl)-hexahydro-pyrrolo[3,2-b]pyrrole-1-yl]-ethyl}-amide]
< 5 µM: human cathepsin B | human cathepsin L

O=C(N[C@@H](CSCc1ccccc1)C(=O)N1CC[C@@H]2[C@H]1C(=O)CN2C(=O)c1ccccc1)C(c1ccccc1)c1ccccc1 [Example 269, (3aR,6aS)-N-[(1R)-2-(4-Benzoyl-6-oxo-hexahydro-pyrrolo[3,2-b]pyrrol-1-yl)-1-benzylsulfanylmethyl-2-oxo-ethyl]-2,2-diphenyl-acetamide]
< 5 µM: human cathepsin B | human cathepsin L
